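The compound was tested at five concentrations on cells cultured in 96-well plates, with a 48-hour exposure period. GI50 marks 50% less growth. TGI marks complete inhibition of growth.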
Assays:
Experiment in all cases: inhibition of tumour cell growth, NCI panel, 48 h
OVCAR-3 ovarian = system: OVCAR-3 ovarian
OVCAR-8 ovarian = system: OVCAR-8 ovarian
T-47D breast = system: T-47D breast
HL-60(TB) leukemia = system: HL-60(TB) leukemia
LOX IMVI melanoma = system: LOX IMVI melanoma
IGROV1 ovarian = system: IGROV1 ovarian
RXF 393 renal = system: RXF 393 renal
OVCAR-4 ovarian = system: OVCAR-4 ovarian
K-562 leukemia = system: K-562 leukemia
SK-OV-3 ovarian = system: SK-OV-3 ovarian
HCT-116 colon = system: HCT-116 colon
RPMI-8226 leukemia = system: RPMI-8226 leukemia
MALME-3M melanoma = system: MALME-3M melanoma
NCI-H226 lung = system: NCI-H226 lung
NCI-H23 lung = system: NCI-H23 lung
MCF7 breast = system: MCF7 breast
HOP-62 NSCLC = system: HOP-62 NSCLC
SN12C renal = system: SN12C renal
SK-MEL-5 melanoma = system: SK-MEL-5 melanoma
MDA-MB-231 breast = system: MDA-MB-231 breast
SNB-75 CNS = system: SNB-75 CNS
TK-10 renal = system: TK-10 renal
UACC-62 melanoma = system: UACC-62 melanoma
OVCAR-5 ovarian = system: OVCAR-5 ovarian
HCC-2998 colon = system: HCC-2998 colon
U251 CNS = system: U251 CNS
SK-MEL-28 melanoma = system: SK-MEL-28 melanoma
786-0 renal = system: 786-0 renal
UACC-257 melanoma = system: UACC-257 melanoma
MDA-MB-468 breast = system: MDA-MB-468 breast
A549 NSCLC = system: A549 NSCLC
NCI-H460 lung = system: NCI-H460 lung
MDA-MB-435 = system: MDA-MB-435
UO-31 renal = system: UO-31 renal
HCT-15 colon = system: HCT-15 colon
HS 578T breast = system: HS 578T breast
SF-295 CNS = system: SF-295 CNS
CAKI-1 renal = system: CAKI-1 renal
EKVX NSCLC = system: EKVX NSCLC
HOP-92 NSCLC = system: HOP-92 NSCLC
SNB-19 CNS = system: SNB-19 CNS
MOLT-4 leukemia = system: MOLT-4 leukemia
SF-268 CNS = system: SF-268 CNS
CCRF-CEM leukemia = system: CCRF-CEM leukemia
PC-3 prostate = system: PC-3 prostate
HT29 colon = system: HT29 colon
COLO 205 colon = system: COLO 205 colon
SF-539 CNS = system: SF-539 CNS
SK-MEL-2 melanoma = system: SK-MEL-2 melanoma
BT-549 breast = system: BT-549 breast
DU-145 prostate = system: DU-145 prostate
NCI/ADR-RES ovarian = system: NCI/ADR-RES ovarian
A498 renal = system: A498 renal
M14 melanoma = system: M14 melanoma
KM12 colon = system: KM12 colon
ACHN renal = system: ACHN renal
NCI-H522 lung = system: NCI-H522 lung
SW-620 colon = system: SW-620 colon

Question: `O=C(c1ccc(OCCN2CCOCC2)cc1)C1[C@H](c2ccc(Cl)cc2)[C@@H](c2ccccc2)NC12C(=O)Nc1ccc(Cl)cc12` (stereo partly specified) was tested. Which GI50 (OVCAR-3 ovarian) did it give?
Answer: 8.24 µM

Question: What about the TGI (OVCAR-3 ovarian) of the same compound?
Answer: 20.1 µM

Question: What about the GI50 (OVCAR-8 ovarian) of the same compound?
Answer: 13.6 µM

Question: And the TGI (OVCAR-8 ovarian)?
Answer: > 47.3 µM

Question: What about the GI50 (T-47D breast) of the same compound?
Answer: 13.5 µM

Question: And the TGI (T-47D breast)?
Answer: > 47.3 µM

Question: What about the GI50 (HL-60(TB) leukemia) of the same compound?
Answer: 12 µM

Question: And the TGI (HL-60(TB) leukemia)?
Answer: 34.9 µM

Question: What about the GI50 (LOX IMVI melanoma) of the same compound?
Answer: 7.35 µM

Question: And the TGI (LOX IMVI melanoma)?
Answer: 13.7 µM

Question: And the GI50 (IGROV1 ovarian)?
Answer: 9.58 µM

Question: What about the TGI (IGROV1 ovarian) of the same compound?
Answer: 23.9 µM

Question: What about the GI50 (RXF 393 renal) of the same compound?
Answer: 6.14 µM

Question: What about the TGI (RXF 393 renal) of the same compound?
Answer: 13.6 µM

Question: What about the GI50 (OVCAR-4 ovarian) of the same compound?
Answer: 11 µM

Question: And the TGI (OVCAR-4 ovarian)?
Answer: 39.2 µM

Question: And the GI50 (K-562 leukemia)?
Answer: 12.8 µM

Question: What about the TGI (K-562 leukemia) of the same compound?
Answer: > 47.3 µM

Question: What about the GI50 (SK-OV-3 ovarian) of the same compound?
Answer: 15.4 µM

Question: What about the TGI (SK-OV-3 ovarian) of the same compound?
Answer: > 47.3 µM

Question: And the GI50 (HCT-116 colon)?
Answer: 8.02 µM

Question: And the TGI (HCT-116 colon)?
Answer: 15.9 µM

Question: And the GI50 (RPMI-8226 leukemia)?
Answer: 10.3 µM

Question: What about the TGI (RPMI-8226 leukemia) of the same compound?
Answer: 29.9 µM

Question: And the GI50 (MALME-3M melanoma)?
Answer: 7.11 µM

Question: And the TGI (MALME-3M melanoma)?
Answer: 14.3 µM

Question: And the GI50 (NCI-H226 lung)?
Answer: 8.06 µM

Question: What about the TGI (NCI-H226 lung) of the same compound?
Answer: 19.5 µM

Question: And the GI50 (NCI-H23 lung)?
Answer: 8.72 µM

Question: And the TGI (NCI-H23 lung)?
Answer: 18.2 µM

Question: And the GI50 (MCF7 breast)?
Answer: 8.4 µM

Question: What about the TGI (MCF7 breast) of the same compound?
Answer: 27.8 µM

Question: What about the GI50 (HOP-62 NSCLC) of the same compound?
Answer: 9.46 µM

Question: What about the TGI (HOP-62 NSCLC) of the same compound?
Answer: 19.5 µM

Question: And the GI50 (SN12C renal)?
Answer: 6.75 µM

Question: What about the TGI (SN12C renal) of the same compound?
Answer: 13 µM

Question: What about the GI50 (SK-MEL-5 melanoma) of the same compound?
Answer: 5.4 µM

Question: What about the TGI (SK-MEL-5 melanoma) of the same compound?
Answer: 11.8 µM

Question: What about the GI50 (MDA-MB-231 breast) of the same compound?
Answer: 7.62 µM

Question: And the TGI (MDA-MB-231 breast)?
Answer: 14.4 µM

Question: What about the GI50 (SNB-75 CNS) of the same compound?
Answer: 4.11 µM

Question: What about the TGI (SNB-75 CNS) of the same compound?
Answer: > 47.3 µM

Question: And the GI50 (TK-10 renal)?
Answer: 9.96 µM

Question: And the TGI (TK-10 renal)?
Answer: 33.7 µM

Question: What about the GI50 (UACC-62 melanoma) of the same compound?
Answer: 6.42 µM

Question: What about the TGI (UACC-62 melanoma) of the same compound?
Answer: 12.8 µM

Question: What about the GI50 (OVCAR-5 ovarian) of the same compound?
Answer: 8.98 µM

Question: What about the TGI (OVCAR-5 ovarian) of the same compound?
Answer: 25.4 µM

Question: And the GI50 (HCC-2998 colon)?
Answer: 7.6 µM

Question: And the TGI (HCC-2998 colon)?
Answer: 14.9 µM

Question: What about the GI50 (U251 CNS) of the same compound?
Answer: 7.15 µM

Question: And the TGI (U251 CNS)?
Answer: 14.6 µM

Question: And the GI50 (SK-MEL-28 melanoma)?
Answer: 7.8 µM

Question: And the TGI (SK-MEL-28 melanoma)?
Answer: 14.6 µM

Question: What about the GI50 (786-0 renal) of the same compound?
Answer: 8.8 µM

Question: And the TGI (786-0 renal)?
Answer: 19.6 µM

Question: And the GI50 (UACC-257 melanoma)?
Answer: 9.69 µM

Question: And the TGI (UACC-257 melanoma)?
Answer: 34.2 µM

Question: And the GI50 (MDA-MB-468 breast)?
Answer: 7.43 µM

Question: What about the TGI (MDA-MB-468 breast) of the same compound?
Answer: 20.4 µM

Question: And the GI50 (A549 NSCLC)?
Answer: 12.6 µM

Question: And the TGI (A549 NSCLC)?
Answer: > 47.3 µM

Question: What about the GI50 (NCI-H460 lung) of the same compound?
Answer: 8.9 µM

Question: What about the TGI (NCI-H460 lung) of the same compound?
Answer: 19.1 µM

Question: And the GI50 (MDA-MB-435)?
Answer: 7.85 µM

Question: And the TGI (MDA-MB-435)?
Answer: 15.8 µM

Question: And the GI50 (UO-31 renal)?
Answer: 7.25 µM

Question: What about the TGI (UO-31 renal) of the same compound?
Answer: 23.7 µM

Question: And the GI50 (HCT-15 colon)?
Answer: 7.53 µM

Question: What about the TGI (HCT-15 colon) of the same compound?
Answer: 15.9 µM

Question: What about the GI50 (HS 578T breast) of the same compound?
Answer: 7.88 µM

Question: And the TGI (HS 578T breast)?
Answer: 21.6 µM

Question: What about the GI50 (SF-295 CNS) of the same compound?
Answer: 7.41 µM

Question: And the TGI (SF-295 CNS)?
Answer: 14.4 µM

Question: What about the GI50 (CAKI-1 renal) of the same compound?
Answer: 8.1 µM

Question: And the TGI (CAKI-1 renal)?
Answer: 39.5 µM

Question: And the GI50 (EKVX NSCLC)?
Answer: 8.46 µM

Question: What about the TGI (EKVX NSCLC) of the same compound?
Answer: 27.2 µM

Question: And the GI50 (HOP-92 NSCLC)?
Answer: 6.85 µM

Question: And the TGI (HOP-92 NSCLC)?
Answer: 18.7 µM

Question: What about the GI50 (SNB-19 CNS) of the same compound?
Answer: 10.6 µM

Question: And the TGI (SNB-19 CNS)?
Answer: 34.9 µM

Question: What about the GI50 (MOLT-4 leukemia) of the same compound?
Answer: 7.53 µM

Question: And the TGI (MOLT-4 leukemia)?
Answer: 27.9 µM

Question: What about the GI50 (SF-268 CNS) of the same compound?
Answer: 10.6 µM

Question: And the TGI (SF-268 CNS)?
Answer: > 47.3 µM

Question: And the GI50 (CCRF-CEM leukemia)?
Answer: 10.6 µM

Question: What about the TGI (CCRF-CEM leukemia) of the same compound?
Answer: 27.1 µM

Question: What about the GI50 (PC-3 prostate) of the same compound?
Answer: 7.93 µM

Question: What about the TGI (PC-3 prostate) of the same compound?
Answer: 20.3 µM

Question: What about the GI50 (HT29 colon) of the same compound?
Answer: 7.49 µM

Question: What about the TGI (HT29 colon) of the same compound?
Answer: 16.7 µM

Question: What about the GI50 (COLO 205 colon) of the same compound?
Answer: 8.43 µM

Question: What about the TGI (COLO 205 colon) of the same compound?
Answer: 16.8 µM

Question: And the GI50 (SF-539 CNS)?
Answer: 8 µM

Question: And the TGI (SF-539 CNS)?
Answer: 15 µM

Question: What about the GI50 (SK-MEL-2 melanoma) of the same compound?
Answer: 7.85 µM

Question: What about the TGI (SK-MEL-2 melanoma) of the same compound?
Answer: 15.7 µM

Question: And the GI50 (BT-549 breast)?
Answer: 8.58 µM

Question: What about the TGI (BT-549 breast) of the same compound?
Answer: 23.5 µM

Question: And the GI50 (DU-145 prostate)?
Answer: 10.9 µM

Question: What about the TGI (DU-145 prostate) of the same compound?
Answer: 28.2 µM

Question: And the GI50 (NCI/ADR-RES ovarian)?
Answer: 11.1 µM

Question: And the TGI (NCI/ADR-RES ovarian)?
Answer: 31.2 µM

Question: And the GI50 (A498 renal)?
Answer: 8.24 µM

Question: What about the TGI (A498 renal) of the same compound?
Answer: 23.2 µM

Question: And the GI50 (M14 melanoma)?
Answer: 8.04 µM

Question: And the TGI (M14 melanoma)?
Answer: 15.8 µM

Question: And the GI50 (KM12 colon)?
Answer: 8.31 µM

Question: And the TGI (KM12 colon)?
Answer: 18.2 µM

Question: And the GI50 (ACHN renal)?
Answer: 11.9 µM

Question: What about the TGI (ACHN renal) of the same compound?
Answer: 40.9 µM

Question: And the GI50 (NCI-H522 lung)?
Answer: 9.75 µM

Question: And the TGI (NCI-H522 lung)?
Answer: 21.3 µM

Question: What about the GI50 (SW-620 colon) of the same compound?
Answer: 8.77 µM

Question: And the TGI (SW-620 colon)?
Answer: 18.9 µM

Reference: PubChem BioAssay (NCI)
